Laboratory results as given in patent US20240090503A1, “FUNGICIDAL OXADIAZOLES AND THEIR MIXTURES” (FMC CORPORATION, priority 2020, published 2024).

Columns and labels:
[1] = system: Phakopsora pachyrhizi (the causal agent of Asian soybean rust); test: Test A: preventive spray on soybean seedlings, Asian soybean rust, visual disease rating; assay type: in vivo; settings: soybean seedlings; for pest or weed control at 10 µg/mL: read-out: Test A disease control rating
How it was run: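 Preventive test: soybean seedlings received a run-off spray of compound suspended at the set ppm in 50/50 acetone/water plus 250 ppm PEG400, and one day later a P. pachyrhizi spore inoculum. Visual scoring (0 none to 100 full disease control) followed 24 h saturated incubation and 8 days' growth chamber, both at 22° C.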

[2] = system: Puccinia recondita f. sp. tritici (the causal agent of wheat leaf rust); test: Test C: preventive spray on wheat seedlings, wheat leaf rust, visual disease rating; assay type: in vivo; settings: wheat seedlings; for pest or weed control at 10 µg/mL: read-out: Test C disease control rating
How it was run: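 Wheat seedlings sprayed to run-off with compound in acetone/water (50/50) with 250 ppm PEG400, then inoculated with spores the following day. After 24 h saturated humidity at 20° C. and 6 days in growth chamber at 20° C., disease rated visually as % control relative to untreated controls.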

[3] = 10 ppm test suspension, 100 = 100% disease control, 0 = no control
[4] = test suspension 10 ppm, 100 = 100% disease control, 0 = no control
[5] = 50 ppm test suspension, 100 = 100% disease control, 0 = no control
[6] = Phakopsora pachyrhizi, 216 h, test suspension 10 ppm, 100 = 100% disease control, 0 = no control
[7] = Puccinia recondita, 168 h, test suspension 10 ppm

## CCOC(=O)COC(=O)c1cnn(Cc2ccc(-c3noc(C(F)(F)F)n3)cc2)c1 [compound 476]
[1]; [3]
  Test A disease control rating: 100%
[2]; [3]
  Test C disease control rating: 86%

## O=c1ccc(Cl)nn1Cc1ccc(-c2noc(C(F)(F)F)n2)cc1 [Compound 4, 6-chloro-2-[[4-[5-(trifluoromethyl)-1,2,4-oxadiazol-3-yl]phenyl]methyl]-3(2H)-pyridazinone]
[1]; Phakopsora pachyrhizi, 216 h, test suspension 50 ppm
  pest or weed control at 50 µg/mL: 100%
[2]; Puccinia recondita, 168 h, test suspension 50 ppm
  pest or weed control at 50 µg/mL: 100%

## CS(=O)(=O)CCOC(=O)c1cnn(Cc2ccc(-c3noc(C(F)(F)F)n3)cc2)c1 [compound 390]
[1]; [3]
  Test A disease control rating: 100%
[2]; [3]
  Test C disease control rating: 100%

## CC(=O)Nc1cnn(Cc2ccc(-c3noc(C(F)(F)F)n3)cc2)c1 [compound 441]
[1]; [3]
  Test A disease control rating: 87%
[2]; [3]
  Test C disease control rating: 9%

## FC(F)(F)c1nc(-c2ccc(CCCn3ccc(-c4ccc(Cl)cc4)n3)cc2)no1 [compound 361]
[1]; [4]
  Test A disease control rating: 100%
[2]; test suspension 10 ppm
  Test C disease control rating: 0%

## CCOC(=O)c1cc(CC)n(Cc2ccc(-c3noc(C(F)(F)F)n3)cc2)n1 [compound 79]
[1]; [4]
  Test A disease control rating: 100%
[2]; test suspension 10 ppm
  Test C disease control rating: 68%

## FC(F)(F)c1nc(-c2ccc(Cn3cc(I)cn3)cc2)no1 [compound 383]
[1]; [3]
  Test A disease control rating: 71%
[2]; [3]
  Test C disease control rating: 68%

## O=C(NCC=C(Cl)Cl)c1csc(Cc2ccc(-c3noc(C(F)(F)F)n3)cc2)n1 [compound 208]
[1]; [4]
  Test A disease control rating: 100%
[2]; test suspension 10 ppm
  Test C disease control rating: 86%

## C=C(Br)COC(=O)c1cnn(Cc2ccc(-c3noc(C(F)(F)F)n3)cc2)c1 [compound 167]
[1]; [4]
  Test A disease control rating: 100%
[2]; test suspension 10 ppm
  Test C disease control rating: 100%

## CC1(COC(=O)c2cnn(Cc3ccc(-c4noc(C(F)(F)F)n4)cc3)c2)COC1 [compound 269]
[1]; [4]
  Test A disease control rating: 100%
[2]; test suspension 10 ppm
  Test C disease control rating: 100%

## CC(C)OC(=O)c1cnn(Cc2cc(-c3noc(C(F)(F)F)n3)cs2)c1 [compound 251]
[1]; [4]
  Test A disease control rating: 100%
[2]; test suspension 10 ppm
  Test C disease control rating: 74%

## Cc1nn(Cc2ccc(-c3noc(C(F)(F)F)n3)cc2)c2ccccc12 [compound 99]
[1]; [4]
  Test A disease control rating: 100%
[2]; test suspension 10 ppm
  Test C disease control rating: 68%

## COCCNC(=O)C1=NOC(Cc2ccc(-c3noc(C(F)(F)F)n3)s2)C1 (stereo not drawn) [compound 461]
[1]; [5]
  Test A disease control rating: 100%
[2]; [5]
  Test C disease control rating: 100%

## CCOC(=O)c1cc(C)n(Cc2ccc(-c3noc(C(F)(F)F)n3)s2)n1 [compound 73]
[1]; [4]
  Test A disease control rating: 100%
[2]; test suspension 10 ppm
  Test C disease control rating: 86%

## COC(=O)C1COC(Cc2ccc(-c3noc(C(F)(F)F)n3)cc2)=N1 (stereo not drawn) [Compound 74, methyl 4,5-dihydro-2-[[4-[5-(trifluoromethyl)-1,2,4-oxadiazol-3-yl]phenyl]methyl]-4-oxazolecarboxylate]
[1]; [6]
  pest or weed control at 10 µg/mL: 99%
[2]; [7]
  pest or weed control at 10 µg/mL: 51%

## FC(F)(F)c1nc(-c2ccc(Cn3ncc4c(I)cc(Cl)cc43)cc2)no1 [compound 39]
[1]; [4]
  Test A disease control rating: 44%
[2]; test suspension 10 ppm
  Test C disease control rating: 28%

## Cc1cc(C(=O)OC(=O)C(F)(F)F)nn1Cc1ccc(-c2noc(C(F)(F)F)n2)cc1 [compound 180]
[1]; [4]
  Test A disease control rating: 97%
[2]; test suspension 10 ppm
  Test C disease control rating: 0%

## CC(C)(C)NC(=O)c1cnn(Cc2ccc(-c3noc(C(F)(F)F)n3)cc2)c1 [compound 78]
[1]; [4]
  Test A disease control rating: 100%
[2]; test suspension 10 ppm
  Test C disease control rating: 100%

## CC(C)ONC(=O)c1cnn(Cc2ccc(-c3noc(C(F)(F)F)n3)cc2)c1 [compound 270]
[1]; [4]
  Test A disease control rating: 100%
[2]; test suspension 10 ppm
  Test C disease control rating: 100%

## NC(=O)C1COC(Cc2ccc(-c3noc(C(F)(F)F)n3)cc2)=N1 (stereo not drawn) [Compound 75, 4,5-dihydro-2-[[4-[5-(trifluoromethyl)-1,2,4-oxadiazol-3-yl]phenyl]methyl]-4-oxazolecarboxamide]
[1]; [6]
  pest or weed control at 10 µg/mL: 100%
[2]; [7]
  pest or weed control at 10 µg/mL: 68%

## COc1cnn(Cc2ccc(-c3noc(C(F)(F)F)n3)cc2)c(=O)c1 [compound 28]
[1]; test suspension 50 ppm
  Test A disease control rating: 100%
[2]; test suspension 50 ppm
  Test C disease control rating: 100%

## CC(COC(=O)c1cnn(Cc2ccc(-c3noc(C(F)(F)F)n3)cc2)c1)=NOC(C)(C)C [compound 220]
[1]; [4]
  Test A disease control rating: 100%
[2]; test suspension 10 ppm
  Test C disease control rating: 86%

## CC(C)CCOC(=O)c1cnn(Cc2ccc(-c3noc(C(F)(F)F)n3)cc2)c1 [compound 480]
[1]; [3]
  Test A disease control rating: 100%
[2]; [3]
  Test C disease control rating: 98%

## O=C(O)c1cnn(Cc2ccc(-c3noc(C(F)(F)F)n3)cc2)c1 [compound 55]
[1]; [4]
  Test A disease control rating: 100%
[2]; test suspension 10 ppm
  Test C disease control rating: 99%

## COC(=O)c1ccc(=O)n(Cc2ccc(-c3noc(C(F)(F)F)n3)cc2)c1 [compound 420]
[1]; [3]
  Test A disease control rating: 100%
[2]; [3]
  Test C disease control rating: 100%

## CN(CC#N)C(=O)c1cnn(Cc2ccc(-c3noc(C(F)(F)F)n3)cc2)c1 [compound 379]
[1]; [3]
  Test A disease control rating: 100%
[2]; [3]
  Test C disease control rating: 97%

## N#Cc1ccc2c(cnn2Cc2ccc(-c3noc(C(F)(F)F)n3)cc2)c1 [compound 106]
[1]; test suspension 50 ppm
  Test A disease control rating: 100%
[2]; test suspension 50 ppm
  Test C disease control rating: 100%

## O=C1c2ccnn2CCN1Cc1ccc(-c2noc(C(F)(F)F)n2)cc1 [compound 297]
[1]; [4]
  Test A disease control rating: 100%
[2]; test suspension 10 ppm
  Test C disease control rating: 93%

## FC(F)(F)c1nc(-c2ccc(Cn3ccc4cnccc43)cc2)no1 [compound 137]
[1]; [4]
  Test A disease control rating: 100%
[2]; test suspension 10 ppm
  Test C disease control rating: 41%

## Cc1c2c(Br)cccc2nn1Cc1ccc(-c2noc(C(F)(F)F)n2)cc1 [compound 37]
[1]; [4]
  Test A disease control rating: 99%
[2]; test suspension 10 ppm
  Test C disease control rating: 86%

## Cc1cccc2cn(Cc3ccc(-c4noc(C(F)(F)F)n4)cc3)nc12 [compound 103]
[1]; [4]
  Test A disease control rating: 100%
[2]; test suspension 10 ppm
  Test C disease control rating: 97%

## CCCOC(=O)c1cnn(C(C)c2ccc(-c3noc(C(F)(F)F)n3)s2)c1 (stereo not drawn) [compound 249]
[1]; [4]
  Test A disease control rating: 100%
[2]; test suspension 10 ppm
  Test C disease control rating: 100%

## Cc1cc(C(=O)NCC#N)nn1Cc1ccc(-c2noc(C(F)(F)F)n2)cc1 [compound 181]
[1]; [4]
  Test A disease control rating: 100%
[2]; test suspension 10 ppm
  Test C disease control rating: 100%

## COCCCOC(=O)c1cnn(Cc2ccc(-c3noc(C(F)(F)F)n3)cc2)c1 [compound 474]
[1]; [3]
  Test A disease control rating: 100%
[2]; [3]
  Test C disease control rating: 100%

## O=c1ccc2ccccc2n1Cc1ccc(-c2noc(C(F)(F)F)n2)cc1 [compound 157]
[1]; [4]
  Test A disease control rating: 100%
[2]; test suspension 10 ppm
  Test C disease control rating: 100%

## CCNC(=O)c1cnn(Cc2ccc(-c3noc(C(F)(F)F)n3)cc2)c1 [compound 67]
[1]; [4]
  Test A disease control rating: 100%
[2]; test suspension 10 ppm
  Test C disease control rating: 99%

## C#CCOC(=O)c1cnn(Cc2ccc(-c3noc(C(F)(F)F)n3)s2)c1 [compound 190]
[1]; [4]
  Test A disease control rating: 100%
[2]; test suspension 10 ppm
  Test C disease control rating: 100%

## O=C(OCC(F)F)c1cnn(Cc2ccc(-c3noc(C(F)(F)F)n3)cc2)c1 [compound 392]
[1]; [3]
  Test A disease control rating: 100%
[2]; [3]
  Test C disease control rating: 100%

## FC(F)(F)c1nc(-c2ccc(Cn3nc4ccccc4c3Br)cc2)no1 [compound 113]
[1]; [4]
  Test A disease control rating: 99%
[2]; test suspension 10 ppm
  Test C disease control rating: 0%

## FC(F)(F)c1nc(-c2ccc(Cn3cc4cnc(Cl)nc4n3)cc2)no1 [compound 433]
[1]; [3]
  Test A disease control rating: 100%
[2]; [3]
  Test C disease control rating: 99%

## CCOC(=O)c1cc(CC)nn1Cc1ccc(-c2noc(C(F)(F)F)n2)cc1 [compound 81]
[1]; [4]
  Test A disease control rating: 100%
[2]; test suspension 10 ppm
  Test C disease control rating: 0%

## CC(=O)COC(=O)c1cnn(Cc2ccc(-c3noc(C(F)(F)F)n3)cc2)c1 [compound 349]
[1]; [4]
  Test A disease control rating: 100%
[2]; test suspension 10 ppm
  Test C disease control rating: 100%

## CCOC(=O)c1cnn(COCc2ccc(-c3noc(C(F)(F)F)n3)cc2)c1 [compound 362]
[1]; test suspension 50 ppm
  Test A disease control rating: 100%
[2]; test suspension 50 ppm
  Test C disease control rating: 100%

## CCOC(=O)C1(Cc2ccc(-c3noc(C(F)(F)F)n3)cc2)CCNC1=O (stereo not drawn) [compound 431]
[1]; [5]
  Test A disease control rating: 99%
[2]; [5]
  Test C disease control rating: 98%

## N#Cc1ccc(COC(=O)c2cnn(Cc3ccc(-c4noc(C(F)(F)F)n4)cc3)c2)cc1 [compound 301]
[1]; [4]
  Test A disease control rating: 100%
[2]; test suspension 10 ppm
  Test C disease control rating: 100%

## N#Cc1ccc2c(cnn2Cc2ccc(-c3noc(C(F)(F)F)n3)s2)c1 [compound 194]
[1]; [4]
  Test A disease control rating: 100%
[2]; test suspension 10 ppm
  Test C disease control rating: 100%

## COC(=O)c1cnn(CCc2ccc(-c3noc(C(F)(F)F)n3)cc2)c1 [compound 436]
[1]; [3]
  Test A disease control rating: 100%
[2]; [3]
  Test C disease control rating: 74%

## C=CCNC(=O)c1cnn(Cc2ccc(-c3noc(C(F)(F)F)n3)cc2)c1 [compound 64]
[1]; [4]
  Test A disease control rating: 100%
[2]; test suspension 10 ppm
  Test C disease control rating: 100%

## O=C(O)c1cnn(CCCc2ccc(-c3noc(C(F)(F)F)n3)cc2)c1 [compound 363]
[1]; test suspension 50 ppm
  Test A disease control rating: 100%
[2]; test suspension 50 ppm
  Test C disease control rating: 100%

## O=C(Nc1ccccc1)c1cnn(Cc2ccc(-c3noc(C(F)(F)F)n3)cc2)c1 [compound 485]
[1]; [3]
  Test A disease control rating: 100%
[2]; [3]
  Test C disease control rating: 99%

## COC(=O)c1cccn(Cc2ccc(-c3noc(C(F)(F)F)n3)cc2)c1=O [compound 422]
[1]; [3]
  Test A disease control rating: 90%
[2]; [3]
  Test C disease control rating: 93%
